Patent US10314803B2, “Pharmaceutical composition comprising eicosapentaenoic acid and nicotinic acid and methods of using same” (Amarin Pharmaceuticals Ireland Limited, priority 2008, dated 2019)

Test system: RBC arachidonic acid
Assay: Red blood cell (RBC) EPA incorporation and arachidonic acid analysis in patients given ethyl-EPA
Format: in vivo, human
Conditions: patients, 0.5, 1, 2 or 4 g of 97% pure ethyl-EPA/day for 12 weeks; FIG. 1, average of several clinical studies
Procedure: An analysis was performed to assess the impact of red blood cell (RBC) EPA incorporation on arachidonic acid formation. In various studies, patients were randomized, on a double-blind basis, to receive either placebo (liquid paraffin) or 0.5 1, 2 or 4 g of 97% pure ethyl-EPA/day for 12 weeks. All the doses were administered in eight identical appearing capsules. RBCs were analyzed for EPA and AA following in general the methodology of Manku et al. M. S. Manku, D. F. Horrobin, Y. S. Huang and N. Morse, Fatty acids in plasma and red cell membranes in normal humans. Lipids 18 (1983), pp. 906-908).
Venous blood was collected into a tube pretreated with EDTA and centrifuged at 1500 gav for 15 min. The plasma layer and the buffy coat were separated off and the red cells washed with an equal volume of 0.9% saline. Samples were stored at −80° C. prior to analysis. On thawing, the RBCs were suspended in NaCL/H2SO4aq. (17 mmol/l NaCl, 1 mmol/l Sulfuric acid, 1.8 ml), then shaken with methanol (3 ml). Chloroform (6 ml) and C17:O internal standard were added and the sample was stirred vigorously using a vortex mixer. […] The resulting methyl esters of the fatty acids were separated and measured using a Hewlett-Packard HP5890 Series II Plus Gas chromatograph (cp-wax 52CB 25 m capillary column, Chrompack UK). […]

CC/C=C\C/C=C\C/C=C\C/C=C\C/C=C\CCCC(=O)OCC [EPA, eicosapentaenoic acid ethyl ester]
RBC EPA: increased
